Read-outs that look alike come from different tables or passages of the source.
Tests used:
[1] = test system: zebrafish embryos; assay: Phenotypic screen for edema and survival in zebrafish larvae at 72 hpf; details: number of larvae (of 36); 3 μM from 2 hpf, scored at 72 hpf
Procedure: The screen was performed in zebrafish embryos using the National Cancer Institute's Developmental Therapeutics Program (NCI/DTP) Diversity Set I. This library contains 1990 compounds selected by pharmacophore modeling to represent the more than 140,000 small molecules maintained in the NCI/DTP Open Repository. Compounds from the NCI/DTP Diversity Set I were diluted to 10 μM in E3 embryo medium (5 mM NaCl, 0.33 mM CaCl2, 0.33 mM MgSO4, and 0.17 mM KCl) in a final DMSO concentration of 0.5% and arrayed in 96-well plates. Beginning at approximately 2 hpf, embryos were transferred to each well in groups of five using a glass pipette. The plates were incubated at 28.5° C. for 70 hours. Individual wells were then scored for a dominant phenotype, representative of at least four of the five embryos. The primary objective was to identify compounds that caused edema in treated embryos at 72 hpf. Small molecules generating edema were retested once for verification, before obtaining additional compound from the NCI/DTP Open Repository.
PTBA was synthesized as described below. Hydroxyurea and aphidicolin were obtained from Sigma-Aldrich. Groups of 20 to 30 chorionated 2 hpf embryos were arrayed in individual wells of 12-well plates. E3 medium was removed with a glass pipette and replaced with 1.5 ml treatment solutions containing 0.5% DMSO in E3 with or without compound at the reported concentrations. Treatments for all studies were initiated at 2 hpf, except for the temporal studies (FIG. 6) and the HUA studies (FIG. 11). HUA studies were performed as described previously (Zhang, L., et al. Cell cycle progression is required for zebrafish somite morphogenesis but not segmentation clock function. Development 135, 2065-2070, (2008)), with the following modifications. HUA in 0.5% DMSO was added at early gastrulation (5 hpf) and PTBA was subsequently added at late gastrulation (8 hpf) to allow for penetration of the proliferation inhibitors. All embryos were incubated at 28.5° C. until the required developmental stage.
Following 70 hours of treatment (as described above), edemic phenotypes in 72 hpf larvae were scored using a phenotype-based classification system. Wild type: no visible edema or developmental delay. […] Significant effects (p<0.05) on survival were determined by two-tailed Fisher's exact test in comparison with the 0 μM PTBA treatment group.
PTBA and methyl-4-(phenylthio)butanoate were synthesized as described above. 4-(Naphthalen-2-ylthio)butanoic acid (NSC2733) and 3-(phenylthio)benzoic acid (NSC113994), were obtained from the NCI/DTP Open Repository. APHA compound 8, Apicidin, butanoic acid, PBA, 4-phenoxybutanoic acid, 5-phenylpentanoic acid, Scriptaid, TSA, and valproic acid were obtained from Sigma-Aldrich. MS-275 and SAHA were obtained from Cayman Chemical Co. 4-(phenylsulfonyl)butanoic acid was obtained from Matrix Scientific. Tubacin was a gift of Dr. Ralph Mazitschek of the Broad Institute (Cambridge, Mass.). The remaining PTBA analogs were synthesized. Three independent groups of 12 chorionated 2 hpf embryos were arrayed in individual wells of 24-well plates. E3 medium was removed with a glass pipette and replaced with 800 μl treatment solutions containing 0.5% DMSO in E3 with or without compound at the reported concentrations.
Phenotypic screening of PTBA analogs was performed identically to the concentration-response experiments detailed above. Embryos were treated with each PTBA analog from 2 to 72 hpf as described above.

[2] = test system: renal progenitor cells; assay: In situ hybridization for lhx1a expression in 10-somite embryos (renal progenitor cell expansion); assay type: in vivo; details: for Lhx1a expansion caused by analog treatment, 200 nM: 200 nM from 2 hpf; for Lhx1a expansion caused by analog treatment, 400 nM: 400 nM from 2 hpf; for responders at 1.5 µM / responders at 0.4 µM / responders at 0.8 µM / responders at 3 µM / responders at 0.2 µM / EC50: Danio rerio; for EC50: first pass EC50 from percent expansion (Excel trendline), average where several experiments; for Lhx1a expansion caused by analog treatment, 200 nM: key: effective (+); partially effective (+/−); ineffective (−); Analogs that killed all embryos at a given concentration before reaching 10 somites are listed as XX; for Lhx1a expansion caused by analog treatment, 3 μM: key: effective (+); partially effective (+/−); ineffective (−); Analogs that killed all embryos at a given concentration before reaching 10 somites are listed as XX; for Lhx1a expansion caused by analog treatment, 400 nM: key: effective (+); partially effective (+/−); ineffective (−); Analogs that killed all embryos at a given concentration before reaching 10 somites are listed as XX; for Lhx1a expansion caused by analog treatment, 800 nM: key: effective (+); partially effective (+/−); ineffective (−); Analogs that killed all embryos at a given concentration before reaching 10 somites are listed as XX
Outline: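 Zebrafish embryos treated with compound, then colorimetric whole-mount in situ hybridization (65° C) for lhx1a mRNA at 10 somites. Embryos with expanded kidney field counted manually as percent of total. EC50 taken as 50% point of percent-expansion trendline; compounds also classed effective, partial or ineffective versus PTBA at matched concentration.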

[3] = 800 nM from 2 hpf, 10-somite embryos
[4] = 1.5 μM from 2 hpf, 10-somite embryos
[5] = 3 μM from 2 hpf, 10-somite embryos
[6] = 1.5 μM from 2 hpf, 10-somite embryos, read-out: lhx1a expansion, percent of treated embryos
[7] = percent of embryos with expanded kidney field, 1.5 μM, read-out: Expansion of Cells (including repeats* and recounts**) 1.5 μM
[8] = percent of embryos with expanded kidney field, 3 μM, read-out: Expansion of Cells (including repeats* and recounts**) 3 μM
[9] = percent of embryos with expanded kidney field, 3 μM
[10] = read-out: lhx1a expansion, percent of treated embryos, 400 nM from 2 hpf, 10-somite embryos
[11] = read-out: lhx1a expansion, percent of treated embryos, 800 nM from 2 hpf, 10-somite embryos
[12] = 3 μM from 2 hpf, 10-somite embryos, read-out: lhx1a expansion, percent of treated embryos

Cc1ccc(SCCCC(=O)NO)cc1 [UPHD-00028, N-hydroxy-4-[(4-methyl-phenyl)sulfanyl]butanamide]
Dead [1]: 22
Edemic 1 (E1) [1]: 0
Edemic 2 (E2) [1]: 0
Edemic 3 (E3) [1]: 14
Wild-type (WT) [1]: 0
Lhx1a expansion caused by analog treatment, 200 nM ([2]; 10-somite embryos): −
Lhx1a expansion caused by analog treatment, 400 nM ([2]; 10-somite embryos): −
Lhx1a expansion caused by analog treatment, 800 nM [2, 3]: +
Lhx1a expansion caused by analog treatment, 1.5 μM [2, 4]: +
Lhx1a expansion caused by analog treatment, 3 μM [2, 5]: +
responders at 1.5 µM [2, 6]: 97%
responders at 0.4 µM ([2]; percent of embryos with expanded kidney field, 400 nM, read-out: Expansion of Cells (including repeats* and recounts**) 400 nM): 9%
responders at 0.8 µM ([2]; percent of embryos with expanded kidney field, 800 nM, read-out: Expansion of Cells (including repeats* and recounts**) 800 nM): 61%
responders at 1.5 µM [2, 7]: 97%
responders at 3 µM [2, 8]: 100%
Expansion of Cells (including repeats* and recounts**) 3 μM [2, 9]: 100%

O=C(CCCSc1ccc(F)cc1)NO [UPHD-00029, 4-[(4-fluoro-phenyl)sulfanyl]-N-hydroxybutanamide]
Dead [1]: 28
Edemic 1 (E1) [1]: 0
Edemic 2 (E2) [1]: 0
Edemic 3 (E3) [1]: 8
Wild-type (WT) [1]: 0
Lhx1a expansion caused by analog treatment, 200 nM ([2]; 10-somite embryos): −
Lhx1a expansion caused by analog treatment, 400 nM ([2]; 10-somite embryos): +/−
Lhx1a expansion caused by analog treatment, 800 nM [2, 3]: +
Lhx1a expansion caused by analog treatment, 1.5 μM [2, 4]: +
Lhx1a expansion caused by analog treatment, 3 μM [2, 5]: +
responders at 1.5 µM [2, 6]: 100%
responders at 0.2 µM ([2]; percent of embryos with expanded kidney field, 200 nM, read-out: Expansion of Cells (including repeats* and recounts**) 200 nM): 6%
responders at 1.5 µM [2, 7]: 100%
responders at 3 µM [2, 8]: 100%
responders at 0.4 µM [2, 10]: 35%
responders at 0.8 µM [2, 11]: 60%
EC50 [2]: 1310 nM

COC(=O)CCCSc1ccc(F)cc1 [UPHD-00030, methyl 4-[(4-fluoro-phenyl)sulfanyl]butanoate]
Dead [1]: 36
Edemic 1 (E1) [1]: 0
Edemic 2 (E2) [1]: 0
Edemic 3 (E3) [1]: 0
Wild-type (WT) [1]: 0
Lhx1a expansion caused by analog treatment, 200 nM ([2]; 10-somite embryos): +/−
Lhx1a expansion caused by analog treatment, 400 nM ([2]; 10-somite embryos): +/−
Lhx1a expansion caused by analog treatment, 800 nM [2, 3]: +
lhx1a expansion, percent of treated embryos [2, 3]: 64%
Lhx1a expansion caused by analog treatment, 1.5 μM [2, 4]: +
lethality before the 10-somite stage ([2]; 3 μM): killed all treated embryos
responders at 1.5 µM [2, 6]: 100%
responders at 1.5 µM [2, 7]: 100%
responders at 0.2 µM ([2]; read-out: lhx1a expansion, percent of treated embryos, 200 nM from 2 hpf, 10-somite embryos): 22%
responders at 0.4 µM [2, 10]: 26%
responders at 0.8 µM [2, 11]: 64%
EC50 [2]: 485 nM
Expansion of Cells (including repeats* and recounts**) 3 μM [2, 9]: All dead

CCC(C)OC(=O)CCCSc1ccccc1 (stereo not drawn) [VNK-I-154]
Dead [1]: 1
Edemic 1 (E1) [1]: 19
Edemic 2 (E2) [1]: 12
Edemic 3 (E3) [1]: 2
Wild-type (WT) [1]: 2
Lhx1a expansion caused by analog treatment, 800 nM [2, 3]: +/−
Lhx1a expansion caused by analog treatment, 1.5 μM [2, 4]: +
Lhx1a expansion caused by analog treatment, 3 μM [2, 5]: +
responders at 1.5 µM [2, 6]: 89%

COc1ccc(SCCCC(=O)NO)cc1 [VNK-I-289, 4-[(4-methoxy-phenyl)sulfanyl]-N-hydroxybutanamide]
Dead [1]: 0
Edemic 1 (E1) [1]: 20
Edemic 2 (E2) [1]: 0
Edemic 3 (E3) [1]: 0
Wild-type (WT) [1]: 16
Lhx1a expansion caused by analog treatment, 3 μM [2, 5]: +/−
responders at 3 µM [2, 12]: 31%

COC(=O)CCCSc1ccc(Br)cc1 [VNK-I-290]
Dead [1]: 0
Edemic 1 (E1) [1]: 27
Edemic 2 (E2) [1]: 1
Edemic 3 (E3) [1]: 0
Wild-type (WT) [1]: 8
Lhx1a expansion caused by analog treatment, 3 μM [2, 5]: +/−
responders at 3 µM [2, 12]: 74%

O=C(CCCSc1ccc(Br)cc1)NO [VNK-I-292, 4-[(4-bromo-phenyl)sulfanyl]-N-hydroxybutanamide]
Dead [1]: 0
Edemic 1 (E1) [1]: 23
Edemic 2 (E2) [1]: 12
Edemic 3 (E3) [1]: 0
Wild-type (WT) [1]: 1
Lhx1a expansion caused by analog treatment, 1.5 μM [2, 4]: +/−
Lhx1a expansion caused by analog treatment, 3 μM [2, 5]: +
responders at 1.5 µM [2, 6]: 47%

O=C(O)CCCNc1ccccc1 [VNK-I-300, 4-(phenylamino)butanoic acid]
Dead [1]: 0
Edemic 1 (E1) [1]: 1
Edemic 2 (E2) [1]: 0
Edemic 3 (E3) [1]: 0
Wild-type (WT) [1]: 35
Lhx1a expansion caused by analog treatment, 3 μM [2, 5]: −

CCC(=O)CCCCC[C@@H]1NC(=O)[C@H]2CCCCN2C(=O)[C@H]([C@@H](C)CC)NC(=O)[C@H](Cc2cn(OC)c3ccccc23)NC1=O [apicidin, reference compound]
Dead [1]: 36
Edemic 1 (E1) [1]: 0
Edemic 2 (E2) [1]: 0
Edemic 3 (E3) [1]: 0
Wild-type (WT) [1]: 0
Lhx1a expansion caused by analog treatment, 200 nM ([2]; 10-somite embryos): −
Lhx1a expansion caused by analog treatment, 400 nM ([2]; 10-somite embryos): +/−
treated embryos killed ([2]; 800 nM): 69%
Lhx1a expansion caused by analog treatment, 800 nM [2, 3]: XX^1
embryos surviving treatment ([2]; 800 nM, n=36): 31%
lethality before the 10-somite stage ([2]; 1.5 μM): lethal
lethality before the 10-somite stage ([2]; 3 μM): killed all treated embryos
responders at 0.4 µM [2, 10]: 22%

CCCC(=O)O [butanoic acid, reference compound]
Dead [1]: 1
Edemic 1 (E1) [1]: 0
Edemic 2 (E2) [1]: 0
Edemic 3 (E3) [1]: 0
Wild-type (WT) [1]: 35
Lhx1a expansion caused by analog treatment, 3 μM [2, 5]: −

CC(C)(C)OC(=O)CCCSc1ccccc1 [tert-butyl 4-(phenylthio)butanoate]
Dead [1]: 0
Edemic 1 (E1) [1]: 3
Edemic 2 (E2) [1]: 0
Edemic 3 (E3) [1]: 0
Wild-type (WT) [1]: 33
Lhx1a expansion caused by analog treatment, 3 μM [2, 5]: +/−
responders at 3 µM [2, 12]: 25%

From patent US10160705B2, “Class of HDAC inhibitors expands the renal progenitor cells population and improves the rate of recovery from acute kidney injury” (University of Pittsburgh—Of the Commonwealth System of …, priority 2011, dated 2018)
